{
  "source": "paper PMC10002517",
  "about": "“Inhibition of Transglutaminase 2 as a Therapeutic Strategy in Celiac Disease—In Vitro Studies in Intestinal Cells and Duodenal Biopsies” (International Journal of Molecular Sciences, 2023)",
  "key": {"TG2 expression": {"system": "TG2 expression", "test": "Western blotting of TG2 protein expression in Caco-2 cells", "type": "cell-based, human", "conditions": "IFN-γ 48 h; normalized to GAPDH; n = 4", "procedure": "[…] First, cells were washed two times with cold PBS, scraped off the plate and centrifuged (60 s at 14,100× g). The cell pellet was resuspended in RIPA lysis buffer supplemented with phenylmethylsulfonyl fluoride, protease inhibitor and sodium orthovanadate (1% each), incubated for 20 min on ice and centrifuged (20 min at 14,100 gat 4 °C) afterwards. Supernatant was collected and cell debris was discarded. Protein quantitation was performed using the Pierce BCA protein assay kit (Thermo Fisher Scientific). After denaturation in Laemmli buffer containing 2-mercaptoethanol for 5 min at 95 °C, 10 µg of the protein extract per lane were loaded on a 12% SDS-gel. Electrophoresis was done for 1 h at 40 mA. Protein transfer onto PVDF membrane (0.2 µm pore size) was done using a Transblot Turbo system (Bio-Rad Laboratories) for 30 min (25 V, 1 A). The membrane was blocked for 1 h with 5% non-fat dry milk in PBS + […]. The primary antibodies (anti-TG2 (1:500): CUB7402, Abcam, Cambridge, UK; anti-GAPDH (1:5000): MAB374, Merck Millipore, Darmstadt, Germany) were incubated at 4 °C in blocking buffer overnight. […] Image processing and quantitation were performed using a ChemiDoc XRS+ imager and Image Lab software (BioRad Laboratories, Feldkirchen, Germany)."}, "[1]": {"system": "transepithelial passage of P31-43 in Caco-2 cells", "test": "Transepithelial transport of promofluor-conjugated gliadin peptide P31-43 across Caco-2 monolayers (fluorometry)", "type": "cell-based, human", "conditions": "3 h", "procedure": "(§1) Transepithelial transport of immunogenic and toxic gliadin peptides were examined in Caco-2 cells 7–14 days after confluency. Caco-2 cells were seeded on semi-permeable transwell supports (ThinCert, culture surface: 33.6 mm², pore size: 0.4 µm) in 24-well plates (Greiner Bio One, Pleidelsheim, Germany). Prior to the transport experiments, the integrity of the cell monolayer was tested by measuring the transepithelial electric resistance (TEER) using a volt-ohm meter (Millipore, Schwalbach, Germany). Monolayers with insufficient TEER (<350 Ω/cm^2) were omitted. The synthesis and purification of promofluor-conjugated gliadin peptides were described elsewhere. Cells were either incubated with the immunogenic peptide P56-88 ([…]) or the toxic gliadin peptide P31-43 (LGQQQPFPPQQPY), 7 µg/mL each, in Hank’s balanced salt solution (HBSS) for 3 h. To investigate the role of TG2 on the transport of gliadin peptides, incubation was performed in the presence of ERW1041 and PX-12. After 3 h, basal and apical supernatants were collected, and the relative fluorescence of the basal compartment was quantified using a FLUOstar Optima (BMG Labtech) microplate reader. Background subtraction was performed against conditions, where no labeled peptides were used. Normalization was performed against conditions, where no inhibitors were used."}, "[2]": {"system": "transepithelial passage of P56-88 in Caco-2 cells", "test": "Transepithelial transport of promofluor-conjugated gliadin peptide P56-88 across Caco-2 monolayers (fluorometry)", "type": "cell-based, human", "conditions": "3 h", "procedure": "as §1"}, "[3]": {"system": "uptake of P56-88 by Caco-2 cells", "test": "Epithelial uptake of P56-88 by Caco-2 cells (confocal microscopy)", "type": "cell-based, human", "conditions": "1 h incubation; z-stack imaging and 3D reconstruction", "procedure": "For microscopic evaluation, Caco-2 cells were seeded on polymer-covered µ-slides (80826, Ibidi) and incubated for 1 h with labeled gliadin peptides in the presence of TG2 inhibitors. After three washes with PBS, cells were fixed with 4% paraformaldehyde. Nuclear staining was performed for 10 min using Hoechst fluorescent stain (1:1000 in PBS). Imaging was done using a confocal laser scanning microscope (TE2000-E, Nikon) and a 60× Plan Apo (NA 1.41) immersion oil objective. Processing of z-stacks, including 3D reconstruction, was performed using ImageJ [46]. For quantitation, z-stack images were taken with the same microscope settings. Using ImageJ, maximum intensity projections were obtained of the z-stack images, and the fluorescence intensity was measured within the whole image."}, "[4]": {"target": "T1, TG2 in Caco-2 cell lysates (Homo sapiens, UniProt P21980)", "T1 construct": "endogenous in cells; host or cells: Caco-2 (differentiated; IFN-γ-stimulated in the monolayer assay)", "T1 sequence (P21980 1-687)": "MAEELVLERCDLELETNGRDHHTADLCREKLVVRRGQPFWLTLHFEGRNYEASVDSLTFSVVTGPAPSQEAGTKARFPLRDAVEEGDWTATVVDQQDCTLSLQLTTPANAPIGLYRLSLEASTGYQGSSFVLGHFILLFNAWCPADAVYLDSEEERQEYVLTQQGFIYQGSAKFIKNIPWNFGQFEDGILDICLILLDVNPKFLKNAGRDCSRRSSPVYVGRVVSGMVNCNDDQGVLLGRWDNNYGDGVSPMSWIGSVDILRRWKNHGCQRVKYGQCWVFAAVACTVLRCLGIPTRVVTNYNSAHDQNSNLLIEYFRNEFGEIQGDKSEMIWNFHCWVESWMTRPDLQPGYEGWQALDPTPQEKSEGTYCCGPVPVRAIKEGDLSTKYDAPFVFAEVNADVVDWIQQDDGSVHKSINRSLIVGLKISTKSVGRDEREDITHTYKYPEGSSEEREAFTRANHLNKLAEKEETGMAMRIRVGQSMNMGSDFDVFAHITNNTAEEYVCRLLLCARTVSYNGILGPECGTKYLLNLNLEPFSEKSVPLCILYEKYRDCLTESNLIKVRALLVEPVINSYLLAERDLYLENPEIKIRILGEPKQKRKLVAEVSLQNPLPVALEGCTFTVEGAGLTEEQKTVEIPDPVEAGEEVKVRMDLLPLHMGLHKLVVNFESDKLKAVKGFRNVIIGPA", "test": "Transglutaminase activity in Caco-2 whole cell lysates (5BP cross-linking)", "type": "biochemical", "conditions": "Caco-2 cells treated with 500 IU/mL IFN-γ for 48 h; mean ± SD, n = 3", "procedure": "The method to investigate TG2 activity from whole cell lysates was adapted from Lin et al.. In brief, 20 µg protein per cavity on the 96-well plate were incubated in 50 mM Tris, 1 mM EDTA, 5 mM calcium chloride (pH 7.5) buffer in the presence of 500 µM 5BP (5-biotinamidopentylamine, Thermo Fisher Scientific, Langenselbold, Germany) for the indicated time. After incubation, the plate was washed three times with PBS + 0.05% Tween. After blocking with 5% BSA in PBS for 1 h, the plate was incubated with 2 µg/mL streptavidin-Alexa Fluor 488 (Thermo Fisher Scientific) in 5% BSA. After 3 washing steps with PBS + 0.05% Tween, fluorometric evaluation was performed using a Clariostar Plus (BMG Labtech) microplate reader (no well scan mode, excitation 488 nm, emission 535 nm, fixed gain: 2000)."}, "[5]": {"target": "T2, extracellular TG2 on Caco-2 cells (Homo sapiens, UniProt P21980)", "T2 construct": "endogenous in cells; host or cells: Caco-2 (differentiated; IFN-γ-stimulated in the monolayer assay)", "T2 sequence (P21980 1-687)": "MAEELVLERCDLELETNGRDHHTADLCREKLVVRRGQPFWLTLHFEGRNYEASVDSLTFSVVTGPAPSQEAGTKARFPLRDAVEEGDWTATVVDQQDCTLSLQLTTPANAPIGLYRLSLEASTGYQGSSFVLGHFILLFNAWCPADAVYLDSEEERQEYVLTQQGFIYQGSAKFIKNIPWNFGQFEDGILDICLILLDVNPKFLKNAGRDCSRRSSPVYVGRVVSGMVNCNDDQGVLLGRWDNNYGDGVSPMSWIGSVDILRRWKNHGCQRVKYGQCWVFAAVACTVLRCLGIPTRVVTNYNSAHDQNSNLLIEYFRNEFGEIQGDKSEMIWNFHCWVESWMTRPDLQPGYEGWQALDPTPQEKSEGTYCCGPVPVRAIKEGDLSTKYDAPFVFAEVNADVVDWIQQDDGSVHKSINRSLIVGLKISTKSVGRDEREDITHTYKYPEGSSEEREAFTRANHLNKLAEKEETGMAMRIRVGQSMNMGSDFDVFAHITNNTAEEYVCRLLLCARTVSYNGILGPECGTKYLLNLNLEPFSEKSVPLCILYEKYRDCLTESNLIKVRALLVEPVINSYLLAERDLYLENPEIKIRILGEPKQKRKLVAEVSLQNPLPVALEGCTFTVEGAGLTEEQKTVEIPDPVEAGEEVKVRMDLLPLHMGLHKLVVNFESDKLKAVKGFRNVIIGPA", "test": "Extracellular TG2 activity on confluent Caco-2 cell monolayers (5BP cross-linking)", "type": "cell-based", "conditions": "1000 IU/mL IFN-γ, 48 h", "procedure": "The method was adapted from Yi et al.. To induce TG2 expression, Caco-2 cells were stimulated with IFN-γ 1000 IU/mL for 48 h. Then, cells were washed three times with warm PBS and incubated with the substrate 5BP for 3 h at 37 °C in 50 mM Tris and 1 mM EDTA (pH 7.5). The substances ERW1041, PX-12 and DTT were added to this solution when indicated. After incubation, cells were washed three times with PBS, fixed with 4% paraformaldehyde for 10 min and blocked with 5% BSA in PBS at 4 °C overnight. Then, cells were incubated at room temperature with streptavidin-Alexa488 (Thermo Scientific, 4 µg/mL) in 5% BSA in the dark for 1 h, followed by three washes with PBS. Fluorometric quantitation was conducted using a FLUOstar Optima microplate reader (BMG Labtech, filter settings: excitation 485 nm, emission 525 nm). Manual gain adjustment was performed, setting the well with the most intense signal as 95%. In all experiments, data were background subtracted against a control without 5BP substrate."}, "[6]": {"conditions": "Caco-2 monolayer on transwell, A-B, 7 µg/mL in HBSS, TEER >= 350 Ω/cm^2, fluorometry"}},
  "data": [
    {"molecule": "IFN-γ: key cytokine of the Th1-driven inflammation in CD, recognized inducer of TG2 expression", "values": [
      {"measurement": "TG2 expression on the protein level", "setting": "TG2 expression", "result": "almost sevenfold increase"}
    ]},
    {"molecule": "LGQQQPFPPQQPY [P31-43]", "values": [
      {"measurement": "translocation from the apical to the basal compartment", "setting": "[1]; [6]", "result": "detected in the basal compartment"}
    ]},
    {"molecule": "LQLQPFPQPQLPYPQPQLPYPQPQLPYPQPQPF [P56-88]", "values": [
      {"measurement": "translocation from the apical to the basal compartment", "setting": "[2]; [6]", "result": "detected in the basal compartment"},
      {"measurement": "cellular localization of the peptide", "setting": "[3]", "result": "localized in the supranuclear cell region"}
    ]},
    {"molecule": "methyl-β-cyclodextrin [MBCD]", "values": [
      {"measurement": "transepithelial passage of P31-43 (relative basal fluorescence)", "setting": "[1]; in the presence of MBCD, 7 µg/mL peptide apical in HBSS, normalized to no inhibitor, mean ± SD, n = 3", "result": "58 ± 7", "unit": "%"},
      {"measurement": "transepithelial transport of P56-88 (relative basal fluorescence)", "setting": "[2]; in the presence of MBCD, 7 µg/mL peptide apical in HBSS, normalized to no inhibitor, n.s., mean ± SD, n = 3", "result": "89 ± 13", "unit": "%"}
    ]},
    {"molecule": "IFN-γ: key cytokine of the Th1-driven inflammation in CD, recognized inducer of TG2 expression (protein, UniProt P01579 24-161, looked up) Interferon gamma: QDPYVKEAENLKKYFNAGHSDVADNGTLFLGILKNWKEESDRKIMQSQIVSFYFKLFKNFKDDQSIQKSVETIKEDMNVKFFNSNKKKRDDFEKLTNYSVTDLNVQRKAIHELIQVMAELSPAAKTGKRKRSQMLFRG", "values": [
      {"measurement": "TG2 activity in Caco-2 cell lysates", "setting": "[4]", "result": "760 ± 259", "unit": "%"},
      {"measurement": "increase of extracellular TG2 activity after IFN-γ stimulation", "setting": "[5]", "result": "about 4 times"}
    ]}
  ]
}
